From patent US5292733A, “Cephalosporin compounds” (Lucky Limited, priority 1991, dated 1994)
≈ marks a conversion by molar mass, not a printed value.

Experiments:
Assay in all cases: Antibacterial activity MIC, two-fold agar dilution
Type in all cases: cell-based
[1] = test system: Staphylococcus aureus ATCC 10537; settings: Staphylococcus aureus ATCC 10537, Muller-Hinton agar, 37° C., 20 hours; for MIC: ATCC10537, read-out: Antibacterial Activity MIC
Description: (§1) These MIC values were taken by employing a two-fold dilution method: that is, two-fold serial dilutions of each of the test compounds were made and dispersed in a Muller-Hinton agar medium; 2 μl of the standard test strain which had the 10^7 CFU(Colony Forming Unit) per ml was inoculated on the medium; and these were incubated at 37° C. for 20 hours. The results of the MIC tests are shown Table 1.

[2] = test system: Escherichia coli ATCC 25922; settings: 37° C., 20 hours; for MIC: ATCC25922, Muller-Hinton agar
Description: as §1

[3] = test system: Providencia rettgeri ATCC 9250; settings: 37° C., 20 hours; for MIC: ATCC9250, Muller-Hinton agar
Description: as §1

[4] = test system: Proteus mirabilis ATCC 25933; settings: Proteus mirabilis ATCC 25933, Muller-Hinton agar, 37° C., 20 hours; for MIC: ATCC25933, read-out: Antibacterial Activity MIC
Description: as §1

[5] = test system: Serratia marcescens ATCC 27117; settings: Serratia marcescens ATCC 27117, Muller-Hinton agar, 37° C., 20 hours; for MIC: ATCC27117, read-out: Antibacterial Activity MIC
Description: as §1

[6] = test system: Enterobacter cloacae ATCC 27508; settings: Enterobacter cloacae ATCC 27508, Muller-Hinton agar, 37° C., 20 hours; for MIC: ATCC27508, read-out: Antibacterial Activity MIC
Description: as §1

[7] = test system: Shigella sonnei ATCC 11060; settings: 37° C., 20 hours; for MIC: ATCC11060, Muller-Hinton agar
Description: as §1

[8] = test system: Shigella flexneri ATCC 11836; settings: 37° C., 20 hours; for MIC: ATCC11836, Muller-Hinton agar
Description: as §1

[9] = test system: Citrobacter freundii ATCC 8090; settings: Citrobacter freundii ATCC 8090, Muller-Hinton agar, 37° C., 20 hours; for MIC: ATCC8090, read-out: Antibacterial Activity MIC
Description: as §1

[10] = test system: Bacillus cereus ATCC 11778; settings: Bacillus cereus ATCC 11778, Muller-Hinton agar, 37° C., 20 hours; for MIC: ATCC11778, read-out: Antibacterial Activity MIC
Description: as §1

[11] = test system: Escherichia coli ATCC 10536; settings: 37° C., 20 hours; for MIC: ATCC10536, Muller-Hinton agar
Description: as §1

[12] = test system: Klebsiella pneumoniae ATCC 10031; settings: Klebsiella pneumoniae ATCC 10031, Muller-Hinton agar, 37° C., 20 hours; for MIC: ATCC10031, read-out: Antibacterial Activity MIC
Description: as §1

[13] = test system: Salmonella typhimurium ATCC 14028; settings: Salmonella typhimurium ATCC 14028, Muller-Hinton agar, 37° C., 20 hours; for MIC: Salmonella enterica, read-out: Antibacterial Activity MIC
Description: as §1

[14] = test system: Enterobacter aerogenes ATCC 29751; settings: Enterobacter aerogenes ATCC 29751, Muller-Hinton agar, 37° C., 20 hours; for MIC: Klebsiella aerogenes, ATCC29751, read-out: Antibacterial Activity MIC
Description: as §1

[15] = test system: Bacillus megaterium ATCC 9885; settings: Bacillus megaterium ATCC 9885, Muller-Hinton agar, 37° C., 20 hours; for MIC: Priestia megaterium, ATCC9885, read-out: Antibacterial Activity MIC
Description: as §1

[16] = test system: Morganella morganii ATCC 8076h; settings: Muller-Hinton agar, 37° C., 20 hours; for MIC: ATCC8076H
Description: as §1

[17] = test system: Pseudomonas aeruginosa ATCC 10145; settings: Pseudomonas aeruginosa ATCC 10145, Muller-Hinton agar, 37° C., 20 hours; for MIC: ATCC10145, read-out: Antibacterial Activity MIC
Description: as §1

[18] = test system: Acinetobacter calcoaceticus ATCC 15473; settings: Acinetobacter calcoaceticus ATCC 15473, Muller-Hinton agar, 37° C., 20 hours; for MIC: ATCC15473, read-out: Antibacterial Activity MIC
Description: as §1

[19] = test system: Pseudomonas aeruginosa ATCC 27853; settings: Pseudomonas aeruginosa ATCC 27853, Muller-Hinton agar, 37° C., 20 hours; for MIC: ATCC27853, read-out: Antibacterial Activity MIC
Description: as §1

[20] = test system: Staphylococcus epidermidis ATCC 12228; settings: Staphylococcus epidermidis ATCC 12228, Muller-Hinton agar, 37° C., 20 hours; for MIC: ATCC12228, read-out: Antibacterial Activity MIC
Description: as §1

[21] = test system: Streptococcus faecalis ATCC 29212; settings: Streptococcus faecalis ATCC 29212, Muller-Hinton agar, 37° C., 20 hours; for MIC: Enterococcus faecalis, ATCC29212, read-out: Antibacterial Activity MIC
Description: as §1

[22] = test system: Micrococcus luteus ATCC 9341; settings: Micrococcus luteus ATCC 9341, Muller-Hinton agar, 37° C., 20 hours; for MIC: ATCC9341, read-out: Antibacterial Activity MIC
Description: as §1

[23] = test system: Staphylococcus aureus ATCC 6538p; settings: Staphylococcus aureus ATCC 6538p, Muller-Hinton agar, 37° C., 20 hours; for MIC: ATCC6538P, read-out: Antibacterial Activity MIC
Description: as §1

[24] = test system: Proteus vulgaris ATCC 6059; settings: Proteus vulgaris ATCC 6059, Muller-Hinton agar, 37° C., 20 hours; for MIC: ATCC6059, read-out: Antibacterial Activity MIC
Description: as §1

[25] = test system: Pseudomonas aeruginosa ATCC 25619; settings: Pseudomonas aeruginosa ATCC 25619, Muller-Hinton agar, 37° C., 20 hours; for MIC: ATCC25619, read-out: Antibacterial Activity MIC
Description: as §1

(6R,7R)-7-[(Z)-2-(5-aminothiazol-4-yl)-2-(2-propyn-1-oxyimino)acetamido]-3-(2,6-diamino-1-methylpyrimidinium-4-yl)thiomethyl-3-cephem-4-carboxylate [Compound I-16]
Antibacterial Activity MIC [1]: 0.5 µg/mL | Antibacterial Activity MIC ([2]; Muller-Hinton agar): 0.5 µg/mL | Antibacterial Activity MIC ([3]; Muller-Hinton agar): <= 0.008 μg/ml | Antibacterial Activity MIC [4]: 1 µg/mL | Antibacterial Activity MIC [5]: 2 µg/mL | Antibacterial Activity MIC [6]: 0.063 µg/mL | Antibacterial Activity MIC ([7]; Muller-Hinton agar): 0.5 µg/mL | Antibacterial Activity MIC ([8]; Muller-Hinton agar): 0.25 µg/mL | Antibacterial Activity MIC [9]: 0.25 µg/mL | Antibacterial Activity MIC [10]: 64 µg/mL | Antibacterial Activity MIC ([11]; Muller-Hinton agar): 0.5 µg/mL | Antibacterial Activity MIC [12]: 0.016 µg/mL | Antibacterial Activity MIC [13]: 1 µg/mL | Antibacterial Activity MIC [14]: 1 µg/mL | Antibacterial Activity MIC [15]: 0.25 µg/mL | Antibacterial Activity MIC [16]: 0.016 µg/mL | Antibacterial Activity MIC [17]: 8 µg/mL | Antibacterial Activity MIC [18]: 8 µg/mL | Antibacterial Activity MIC [19]: 4 µg/mL | Antibacterial Activity MIC [20]: 0.25 µg/mL | Antibacterial Activity MIC [21]: 32 µg/mL | Antibacterial Activity MIC [22]: 0.031 µg/mL | Antibacterial Activity MIC [23]: 0.5 µg/mL | Antibacterial Activity MIC [24]: 1 µg/mL | Antibacterial Activity MIC [25]: 2 µg/mL

CO/N=C(\C(=O)N[C@@H]1C(=O)N2C(C(=O)[O-])=C(CSc3cc(N)[n+](C)c(N)n3)CS[C@H]12)c1csc(N)n1 [Compound I-21, (6R,7R)-7-[(Z)-2-(2-aminothiazol-4-yl)-2-(methoxyimino)acetamido]-3-(2,6-diamino-1-methylpyrimidinium-4-yl)thiomethyl-3-cephem-4-carboxylate]
MIC [1]: 0.5 µg/mL (≈ 0.906 µM) | MIC [2]: 0.063 µg/mL (≈ 0.114 µM) | MIC [3]: ≤ 0.008 µg/mL | MIC [4]: 0.5 µg/mL (≈ 0.906 µM) | MIC [5]: 0.25 µg/mL (≈ 0.453 µM) | MIC [6]: ≤ 0.008 µg/mL | MIC [7]: 0.13 µg/mL (≈ 0.236 µM) | MIC [8]: 0.016 µg/mL (≈ 0.029 µM) | MIC [9]: 0.031 µg/mL (≈ 0.0562 µM) | MIC [10]: 128 µg/mL (≈ 232 µM) | MIC [11]: 0.063 µg/mL (≈ 0.114 µM) | MIC [12]: ≤ 0.008 µg/mL | MIC [13]: 0.13 µg/mL (≈ 0.236 µM) | MIC [14]: 0.25 µg/mL (≈ 0.453 µM) | MIC [15]: 0.13 µg/mL (≈ 0.236 µM) | MIC [16]: ≤ 0.008 µg/mL | MIC [17]: 16 µg/mL (≈ 29 µM) | MIC [18]: 8 µg/mL (≈ 14.5 µM) | MIC [19]: 2 µg/mL (≈ 3.63 µM) | MIC [20]: 0.25 µg/mL (≈ 0.453 µM) | MIC [21]: 32 µg/mL (≈ 58 µM) | MIC [22]: 0.063 µg/mL (≈ 0.114 µM) | MIC [23]: 0.5 µg/mL (≈ 0.906 µM) | MIC [24]: 0.5 µg/mL (≈ 0.906 µM) | MIC [25]: 1 µg/mL (≈ 1.81 µM)

CC[n+]1c(SCC2=C(C(=O)[O-])N3C(=O)[C@@H](NC(=O)/C(=N\OC(C)C(=O)O)c4csc(N)n4)[C@H]3SC2)cc(N)nc1N (stereo partly drawn) [Compound I-4, (6R,7R)-7-[(Z)-2-(2-aminothiazol-4-yl)-2-(R,S-carboxyeth-1-oxyimino)acetamido]-3-(2,6-diamino-3-ethylpyrimidinium-4-yl)thiomethyl-3-cephem-4-carboxylate]
MIC [1]: 4 µg/mL (≈ 6.41 µM) | MIC [2]: 0.13 µg/mL (≈ 0.208 µM) | MIC [3]: ≤ 0.008 µg/mL | MIC [4]: 0.31 µg/mL (≈ 0.497 µM) | MIC [5]: 0.13 µg/mL (≈ 0.208 µM) | MIC [6]: 0.016 µg/mL (≈ 0.0257 µM) | MIC [7]: 0.25 µg/mL (≈ 0.401 µM) | MIC [8]: 0.031 µg/mL (≈ 0.0497 µM) | MIC [9]: 0.13 µg/mL (≈ 0.208 µM) | MIC [10]: 64 µg/mL (≈ 103 µM) | MIC [11]: 0.13 µg/mL (≈ 0.208 µM) | MIC [12]: 0.031 µg/mL (≈ 0.0497 µM) | MIC [13]: 0.5 µg/mL (≈ 0.802 µM) | MIC [14]: 1 µg/mL (≈ 1.6 µM) | MIC [15]: 0.25 µg/mL (≈ 0.401 µM) | MIC [16]: ≤ 0.008 µg/mL | MIC [17]: 2 µg/mL (≈ 3.21 µM) | MIC [18]: 4 µg/mL (≈ 6.41 µM) | MIC [19]: 2 µg/mL (≈ 3.21 µM) | MIC [20]: 1 µg/mL (≈ 1.6 µM) | MIC [21]: > 128 µg/mL | MIC [22]: 0.5 µg/mL (≈ 0.802 µM) | MIC [23]: 8 µg/mL (≈ 12.8 µM) | MIC [24]: 0.063 µg/mL (≈ 0.101 µM) | MIC [25]: 1 µg/mL (≈ 1.6 µM)

CC[n+]1c(SCC2=C(C(=O)[O-])N3C(=O)[C@@H](NC(=O)/C(=N\OC(C)(C)C(=O)O)c4csc(N)n4)[C@H]3SC2)cc(N)nc1N [Compound I-2, (6R,7R)-7-[(Z)-2-(2-aminothiazol-4-yl)-2-(carboxyprop-2-oxyimino)acetamido]-3-(2,6-diamino-3-ethylpyrimidinium-4-yl)thiomethyl-3-cephem-4-carboxylate]
MIC [1]: 4 µg/mL (≈ 6.27 µM) | MIC [2]: 0.063 µg/mL (≈ 0.0988 µM) | MIC [3]: ≤ 0.008 µg/mL | MIC [4]: 0.31 µg/mL (≈ 0.486 µM) | MIC [5]: 0.13 µg/mL (≈ 0.204 µM) | MIC [6]: 0.016 µg/mL (≈ 0.0251 µM) | MIC [7]: 0.25 µg/mL (≈ 0.392 µM) | MIC [8]: 0.031 µg/mL (≈ 0.0486 µM) | MIC [9]: 0.13 µg/mL (≈ 0.204 µM) | MIC [10]: 64 µg/mL (≈ 100 µM) | MIC [11]: 0.063 µg/mL (≈ 0.0988 µM) | MIC [12]: 0.031 µg/mL (≈ 0.0486 µM) | MIC [13]: 0.5 µg/mL (≈ 0.784 µM) | MIC [14]: 1 µg/mL (≈ 1.57 µM) | MIC [15]: 0.25 µg/mL (≈ 0.392 µM) | MIC [16]: ≤ 0.008 µg/mL | MIC [17]: 1 µg/mL (≈ 1.57 µM) | MIC [18]: 4 µg/mL (≈ 6.27 µM) | MIC [19]: 1 µg/mL (≈ 1.57 µM) | MIC [20]: 1 µg/mL (≈ 1.57 µM) | MIC [21]: > 128 µg/mL | MIC [22]: 0.5 µg/mL (≈ 0.784 µM) | MIC [23]: 4 µg/mL (≈ 6.27 µM) | MIC [24]: 0.13 µg/mL (≈ 0.204 µM) | MIC [25]: 1 µg/mL (≈ 1.57 µM)
